The text below walks through data of patent US8206955B2, “Production of monatin and monatin precursors” (Cargill, Incorporated, priority 2003, dated 2012).

One series deals with E. coli BL21(DE3). Description: effect of Tweens on growth of E. coli in shake flasks. As to conditions: for effect on growth rate: 0.2% Tween in the presence of 10 μg/mL ampicillin, followed over 48 h.
The nature of series [1]: aldolase activity assay, indole-3-pyruvate and pyruvate to MP. The series is classed as biochemical. As for the experimental part: The proteins were assayed for activity using indole-3-pyruvate and sodium pyruvate as substrates. The assay mixture contained 100 mM Tris-HCl (pH 7-pH 8.9), 0-8 mM MgCl2, 3 mM potassium phosphate (pH 8), and 6 mM of each substrate in 1 mL. The reaction was started by adding varying amounts of polypeptide (for example from 10 to 100 μg), and was incubated at 25° C.-37° C. for 30 minutes, filtered, and then frozen at −80° C.
There is no evidence that magnesium and phosphate are required for activity for this enzyme. However, the literature reports performing the assays in sodium phosphate buffer, and the enzyme reportedly is bifunctional and has activity on phosphorylated substrates such as 2-keto-3-deoxy-6-phosphogluconate (KDPG). The enzymatic assays were performed as described above, and in some instances the phosphate was omitted. […] In some cases the level of MP produced by KHG was almost identical to the amount produced by magnesium and phosphate alone. […] The Bacillus enzyme had the highest activity, approximately 20-25% higher activity than the magnesium and phosphate alone, as determined by LC/MS/MS (see Example 6). […] All three enzymes have the active site glutamate (position 43 in B. subtilis numbering system) as well as the lysine required for Shiff base formation with pyruvate (position 130); however, the B. subtilis enzyme contains a threonine in position 47, an active site residue, rather than arginine. The B. subtilis KHG is smaller and appears to be in a cluster distinct from the S. meliloti and E. coli enzymes, with other enzymes having the active site threonine. The differences in the active site may be the reason for the increased activity of the B. subtilis enzyme.

For series [2], the system named is C. testosteroni ProA aldolase and L-aspartate aminotransferase (AspC). Put plainly: production of monatin utilizing alternative C3-carbon sources. It is filed as biochemical. The protocol:
The reaction mixture consisted of 50 mM Tris-Cl pH 8.3, 2 mM MgCl2, 200 mM C3 carbon source, 5 mM alpha-ketoglutarate, sodium salt, 0.05 mM pyridoxal phosphate, deaerated water to achieve a final volume of 0.5 mL after the addition of the enzymes, 3 mM potassium phosphate pH 7.5, 25 μg of crude recombinant C. testosteroni ProA aldolase as prepared in Example 2, 500 μg of crude L-aspartate aminotransferase (AspC) as prepared in Example 1, and solid tryptophan to afford a concentration of >60 mM (saturated; some undissolved throughout the reaction). The reaction mix was incubated at 30° C. for 30 minutes with mixing. Serine, alanine, and aspartate were supplied as 3-carbon sources. Assays were performed with and without secondary PLP enzymes (purified) capable of performing beta-elimination and beta-lyase reactions (tryptophanase (TNA), double mutant tryptophanase, β-tyrosinase (TPL)).

A further series is described as follows: stability of MP. It is filed as physicochemical. The text has this:
Any effect of additional tryptophan and pyruvate was not detectable, except in the case of Comamonas, where a benefit was noted. […] It is not known whether tryptophan and pyruvate are efficiently taken up in these wildtype organisms, or what changes in gene expression occur as a result of adding large concentrations of these substrates to the medium. While the parahydroxybenzoate substrate is only known to induce the aldolase in Comamonas, it appears to have improved the level of monatin produced in S. meliloti as well.

A further series concerns C. testosteroni. Description: plate assay using monatin as the main carbon and energy source. It is filed as cell-based. As for the experimental part:
(§1) Organisms that can synthesize monatin can be detected by screening for growth on plates in which monatin (or the monatin precursor (MP)) is the main carbon and energy source. Screening by this method requires (1) that the synthetic pathway be reversible, allowing the product, monatin, to be metabolized by this route and (2) that the organism has a transport system that is able to import monatin or MP. S. meliloti, P. straminea, and C. testosteroni were tested for their ability to grow on minimal medium plates which contained monatin as the primary carbon and energy source.
(§2) Plates containing M9 minimal medium or Rhizobium minimal medium were prepared with 0.01% casamino acids and 0.1-0.2% carbon source (glucose or purified monatin). Negative control plates contained casamino acids but no additional carbon source. S. meliloti, P. straminea, and C. testosteroni were grown in rich media to OD 2.1-2.7 and diluted 1000-fold with sterile 1× phosphate-buffered saline (PBS). A volume of 1-10 μL was used for plating. The plates were incubated at 26° C. for several days. […] The experiments were repeated and C. testosteroni was grown in both NB as well as PHB media prior to induction. Again using M9 media for plating, the S. meliloti appeared to grow better with monatin as the carbon source than the other organisms. […] In addition, at the higher dilution (10^−6), the use of PHB-grown inoculum increased the number and size of colonies obtained compared to the NB-grown inoculum.

For another series, the system named is S. meliloti. The description is as above. It is filed as cell-based. Particulars: M9 medium + monatin (0.1-0.2%), 26° C. As for the experimental part:
as §1, §2

Setting [3] is: 200 mM C3 carbon source, additional PLP enzyme: None.
Where [4] appears, read: additional PLP enzyme: 11 μg wildtype TNA (1 U).
Where [5] appears, read: additional PLP enzyme: 80 μg double mutant TNA.

Method for E. coli BL21(DE3): The affect of several detergent Tweens on the growth rate of E. coli BL21(DE3) was studied in shake flask experiments. Either Tween-20, -40, 60, or -80 was added at 0.2% in the presence of 10 μg/mL ampicillin and the growth was followed over 48 h.

Take Tween-60: in the series on E. coli BL21(DE3), the “effect on growth rate” value is “intermediate in affect”.

For “C. testosteroni aldolase: 4-hydroxy-4-methyl-2-oxoglutarate pyruvate lyase (ProA aldolase) from Comamonas testosteroni (SEQ ID NO: 66)”, the “amount of MP produced” value in series [1] (standard assay using 20 μg of purified protein, based on tryptophan standards) is given as 10-40 μg per one mL reaction.

Turning to `N[C@@H](CO)C(=O)O` [serine], the “Relative Activity” value in series [2] (setting [3]) is reported as 3%; in series [2] (setting [4]), 5.1%; in series [2] (setting [5]), 4.6%.

For `O=C(O)C(=O)CC(O)(Cc1c[nH]c2ccccc12)C(=O)O` (centres unmarked) [MP, 2-hydroxy 2-(indole-3-ylmethyl)-4-keto glutaric acid], the stability result is recorded as “unstable in an aqueous solution” in the series “stability of MP” (aqueous solution); “not stable in this particular matrix” in the series “stability of MP” (fermentation broth and cell extracts).

As to Tween 40, in the series on E. coli BL21(DE3) (0.2% Tween), the inhibition to growth result is given as “least inhibition to growth”. In addition, the “effect on growth rate” value in the series with E. coli BL21(DE3) was “affected the growth rate the least”.

For Tween-80, the “effect on growth rate” value with E. coli BL21(DE3) is reported as “intermediate in affect”.

`Cc1ncc(COP(=O)(O)O)c(C=O)c1O` [PLP, pyridoxal 5′-phosphate, reference compound]: the “formation of MP from indole-3-pyruvate and pyruvate (in words)” value in series [1] is “did not appear to detectably convert indole-3-pyruvate to MP”.

Turning to `NC(CC(O)(Cc1c[nH]c2ccccc12)C(=O)O)C(=O)O` (racemic) [monatin, 2-hydroxy-2-(indol-3-ylmethyl)-4-aminoglutaric acid], the “growth with monatin as carbon source” value in the series on C. testosteroni (M9 media + monatin) is “exhibited some growth”; in the series on C. testosteroni (Rhizobium minimal medium), “grew better with monatin as the carbon and energy source than it did with glucose”; in the series on S. meliloti it was “exhibited better growth than the other strains tested”.

For `C[C@H](N)C(=O)O` [alanine], the “Relative Activity” value in series [2] (setting [3]) amounted to 32%; in series [2] (setting [4]), 41.7%; in series [2] (setting [5]), 43.9%.

With “polyoxyethylene 20-Sorbitan monolaurate [Tween 20]”, the “final OD600 relative to cultures grown in the presence of Tween 40” value in the series with E. coli BL21(DE3) (0.2% Tween) is “slightly over half”. In addition, the “effect on growth rate” value with E. coli BL21(DE3) is on record as “about half”.

Consider tryptophanase, for which, in series [1], the “formation of MP from indole-3-pyruvate and pyruvate (in words)” value is recorded as “did not appear to detectably convert indole-3-pyruvate to MP”.
